Source: PubChem BioAssay (NCI)
“And” between values parts separate entries of the source, which are not always exact repeats. Equal values may be shown once.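 A five-concentration, 48-hour dose response in 96-well plates underlies each endpoint, interpolated linearly between surrounding concentrations. At the GI50, growth is halved. TGI marks complete inhibition of growth.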

System: NCI/ADR-RES ovarian
Test: NCI anticancer screen, dose series, 48 h

Row | Structure (SMILES) | GI50 | TGI
1 | CC(C)(C#N)c1cc(Cn2cncn2)cc(C(C)(C)C#N)c1 | 477 µM | > 10000 µM
2 | NOCC(=O)O | > 100 µM | > 100 µM
3 | CC(=O)c1c(C)[nH]c(-c2nc3ccc(N4CCN(C)CC4)cc3[nH]2)c1-c1ccc(OCC2CCOCC2)cc1 | 1.02 µM | 30.5 µM
4 | CC12OC(c3ccccc3)=CC(c3ccc(Cl)cc3)=C1C(c1ccccc1)=CC2=O (centres undefined) | 55.9 µM | > 100 µM
5 | Cc1nc2sc(C(=O)Nc3cccc(Cl)c3C)c(N)c2cc1C(=O)/C=C/c1ccccc1 | 0.176 µM | 0.656 µM
6 | CC(C)c1ccc(C(=O)Nc2nc3ccc(O)cc3s2)cc1 | 0.948 µM | > 100 µM
7 | O=S(=O)(NC1=NCCN1C(=S)SN1CCn2c1nsc2=S)c1ccc(Br)cc1 | > 100 µM | > 100 µM
8 | CC(=O)N[C@H]1C=C[C@@H]2/C=C(C)/C=C/[C@@H](C)[C@H]([C@H](C)[C@H](O)[C@@H](C)NC(C)=O)OC(=O)/C=C/C=C(C)\C=C\[C@]2(C)C1 | 0.213 µM and 0.0397 µM | 4.65 µM and > 45 µM
9 | O=C1c2ccccc2-c2c1c1ccccc1c(=O)n2CCCNCCCn1ccnc1 | 1.66 µM | 4.45 µM
10 | ClCc1cccc(Cn2cnc3c(NC45CC6CC(CC(C6)C4)C5)ncnc32)c1 | 16.2 µM | 41.9 µM
11 | CC(=O)CC(=O)Nc1ccc2ccccc2c1 |  | > 100 µM
12 | O=c1c2cc(Cl)ccc2oc2ccc(OCCCCCN3CCCCC3)cc12 | 5.47 µM | 24.8 µM
13 | Cc1cc(I)cc(CN(C)CCCN2CCSCC2)c1O | 24.8 µM | 76.5 µM
14 | O=C1c2ccccc2C(=O)N1CCCSc1ccccc1 |  | > 100 µM
15 | CCOC(=O)Nc1nc2ccc(Cn3cccc3)cc2[nH]1 |  | 21.2 µM
16 | COc1cc(Nc2nccc(Nc3ccc4c(C)[nH]nc4c3)n2)cc(OC)c1OC | 4.39 µM | 13.7 µM
17 | CCN(CC)CCC(=O)NC1c2ccc(Cl)cc2Oc2c(C)cccc21 (centres undefined) |  | 39 µM
18 | CCOC(=O)c1cc(C#N)c(=O)n(/N=C(\C)c2ccncc2)c1O | > 100 µM | > 100 µM
19 | COc1ccc(/C=N\NC(=O)CN2CCN(c3cc4c(cc3F)c(=O)c(C(=O)N/N=C/c3ccc(OC)c(OC)c3)cn4C3CC3)CC2)cc1OC | > 100 µM | > 100 µM

System: OVCAR-8 ovarian
Test: NCI anticancer screen, dose series, 48 h

Row | Structure (SMILES) | GI50 [µM] | TGI
20 | CC(C)(C#N)c1cc(Cn2cncn2)cc(C(C)(C)C#N)c1 | > 10000 | > 10000 µM
21 | NOCC(=O)O | > 100 | > 100 µM
22 | CC(=O)c1c(C)[nH]c(-c2nc3ccc(N4CCN(C)CC4)cc3[nH]2)c1-c1ccc(OCC2CCOCC2)cc1 | 1.5 | 27.9 µM
23 | CC12OC(c3ccccc3)=CC(c3ccc(Cl)cc3)=C1C(c1ccccc1)=CC2=O (centres undefined) | > 100 | > 100 µM
24 | Cc1nc2sc(C(=O)Nc3cccc(Cl)c3C)c(N)c2cc1C(=O)/C=C/c1ccccc1 | 0.543 | > 14.3 µM
25 | CC(C)c1ccc(C(=O)Nc2nc3ccc(O)cc3s2)cc1 | 1.48 | > 100 µM
26 | O=S(=O)(NC1=NCCN1C(=S)SN1CCn2c1nsc2=S)c1ccc(Br)cc1 | 25.8 | 68.8 µM
27 | CC(=O)N[C@H]1C=C[C@@H]2/C=C(C)/C=C/[C@@H](C)[C@H]([C@H](C)[C@H](O)[C@@H](C)NC(C)=O)OC(=O)/C=C/C=C(C)\C=C\[C@]2(C)C1 |  | 4.65 µM and > 45 µM
28 | O=C1c2ccccc2-c2c1c1ccccc1c(=O)n2CCCNCCCn1ccnc1 | 2.44 | > 37.3 µM
29 | ClCc1cccc(Cn2cnc3c(NC45CC6CC(CC(C6)C4)C5)ncnc32)c1 | 17.8 | 50.8 µM
30 | CC(=O)CC(=O)Nc1ccc2ccccc2c1 |  | > 100 µM
31 | O=c1c2cc(Cl)ccc2oc2ccc(OCCCCCN3CCCCC3)cc12 | 6.09 | 14.2 µM
32 | Cc1cc(I)cc(CN(C)CCCN2CCSCC2)c1O | 34.8 | > 100 µM
33 | O=C1c2ccccc2C(=O)N1CCCSc1ccccc1 |  | > 100 µM
34 | CCOC(=O)Nc1nc2ccc(Cn3cccc3)cc2[nH]1 |  | > 100 µM
35 | COc1cc(Nc2nccc(Nc3ccc4c(C)[nH]nc4c3)n2)cc(OC)c1OC | 3.39 | 10.2 µM
36 | CCN(CC)CCC(=O)NC1c2ccc(Cl)cc2Oc2c(C)cccc21 (centres undefined) |  | 31.4 µM
37 | CCOC(=O)c1cc(C#N)c(=O)n(/N=C(\C)c2ccncc2)c1O | > 100 | > 100 µM
38 | COc1ccc(/C=N\NC(=O)CN2CCN(c3cc4c(cc3F)c(=O)c(C(=O)N/N=C/c3ccc(OC)c(OC)c3)cn4C3CC3)CC2)cc1OC | 3.81 | 81.1 µM

System: KM12 colon
Test: NCI anticancer screen, dose series, 48 h

Row | Structure (SMILES) | GI50 | TGI
39 | CC(C)(C#N)c1cc(Cn2cncn2)cc(C(C)(C)C#N)c1 | > 10000 µM | > 10000 µM
40 | NOCC(=O)O | > 100 µM | > 100 µM
41 | CC(=O)c1c(C)[nH]c(-c2nc3ccc(N4CCN(C)CC4)cc3[nH]2)c1-c1ccc(OCC2CCOCC2)cc1 | 0.924 µM | 14.6 µM
42 | CC12OC(c3ccccc3)=CC(c3ccc(Cl)cc3)=C1C(c1ccccc1)=CC2=O (centres undefined) | 71.8 µM | > 100 µM
43 | Cc1nc2sc(C(=O)Nc3cccc(Cl)c3C)c(N)c2cc1C(=O)/C=C/c1ccccc1 | 0.479 µM | 1.5 µM
44 | CC(C)c1ccc(C(=O)Nc2nc3ccc(O)cc3s2)cc1 | 0.262 µM | > 100 µM
45 | O=S(=O)(NC1=NCCN1C(=S)SN1CCn2c1nsc2=S)c1ccc(Br)cc1 | 25.5 µM | > 100 µM
46 | CC(=O)N[C@H]1C=C[C@@H]2/C=C(C)/C=C/[C@@H](C)[C@H]([C@H](C)[C@H](O)[C@@H](C)NC(C)=O)OC(=O)/C=C/C=C(C)\C=C\[C@]2(C)C1 | 0.0246 µM and 0.0045 µM | 4.65 µM and > 45 µM
47 | O=C1c2ccccc2-c2c1c1ccccc1c(=O)n2CCCNCCCn1ccnc1 | 0.593 µM | 2.41 µM
48 | ClCc1cccc(Cn2cnc3c(NC45CC6CC(CC(C6)C4)C5)ncnc32)c1 | 14.6 µM | 30.6 µM
49 | CC(=O)CC(=O)Nc1ccc2ccccc2c1 |  | > 100 µM
50 | O=c1c2cc(Cl)ccc2oc2ccc(OCCCCCN3CCCCC3)cc12 | 2.68 µM | 9 µM
51 | Cc1cc(I)cc(CN(C)CCCN2CCSCC2)c1O | 37.2 µM | > 100 µM
52 | O=C1c2ccccc2C(=O)N1CCCSc1ccccc1 |  | > 100 µM
53 | CCOC(=O)Nc1nc2ccc(Cn3cccc3)cc2[nH]1 |  | > 100 µM
54 | COc1cc(Nc2nccc(Nc3ccc4c(C)[nH]nc4c3)n2)cc(OC)c1OC | 0.68 µM | 3.06 µM
55 | CCN(CC)CCC(=O)NC1c2ccc(Cl)cc2Oc2c(C)cccc21 (centres undefined) |  | 30.4 µM
56 | CCOC(=O)c1cc(C#N)c(=O)n(/N=C(\C)c2ccncc2)c1O | > 100 µM | > 100 µM
57 | COc1ccc(/C=N\NC(=O)CN2CCN(c3cc4c(cc3F)c(=O)c(C(=O)N/N=C/c3ccc(OC)c(OC)c3)cn4C3CC3)CC2)cc1OC | 3.42 µM | 10.7 µM

System: MCF7 breast
Test: NCI anticancer screen, dose series, 48 h

Row | Structure (SMILES) | GI50 | TGI
58 | CC(C)(C#N)c1cc(Cn2cncn2)cc(C(C)(C)C#N)c1 | 2240 µM | > 10000 µM
59 | NOCC(=O)O | > 100 µM | > 100 µM
60 | CC(=O)c1c(C)[nH]c(-c2nc3ccc(N4CCN(C)CC4)cc3[nH]2)c1-c1ccc(OCC2CCOCC2)cc1 | 0.218 µM | 11.6 µM
61 | CC12OC(c3ccccc3)=CC(c3ccc(Cl)cc3)=C1C(c1ccccc1)=CC2=O (centres undefined) | 60.8 µM | > 100 µM
62 | Cc1nc2sc(C(=O)Nc3cccc(Cl)c3C)c(N)c2cc1C(=O)/C=C/c1ccccc1 | 0.192 µM | 3.32 µM
63 | CC(C)c1ccc(C(=O)Nc2nc3ccc(O)cc3s2)cc1 | 0.442 µM | 48.2 µM
64 | O=S(=O)(NC1=NCCN1C(=S)SN1CCn2c1nsc2=S)c1ccc(Br)cc1 | 31.7 µM | > 100 µM
65 | CC(=O)N[C@H]1C=C[C@@H]2/C=C(C)/C=C/[C@@H](C)[C@H]([C@H](C)[C@H](O)[C@@H](C)NC(C)=O)OC(=O)/C=C/C=C(C)\C=C\[C@]2(C)C1 | 0.0336 µM and 0.0045 µM | 4.65 µM and > 45 µM
66 | O=C1c2ccccc2-c2c1c1ccccc1c(=O)n2CCCNCCCn1ccnc1 | 0.772 µM | 12.7 µM
67 | ClCc1cccc(Cn2cnc3c(NC45CC6CC(CC(C6)C4)C5)ncnc32)c1 | 9.1 µM | 45.5 µM
68 | CC(=O)CC(=O)Nc1ccc2ccccc2c1 |  | > 100 µM
69 | O=c1c2cc(Cl)ccc2oc2ccc(OCCCCCN3CCCCC3)cc12 | 5.24 µM | 14.6 µM
70 | Cc1cc(I)cc(CN(C)CCCN2CCSCC2)c1O | 18.5 µM | 40.5 µM
71 | O=C1c2ccccc2C(=O)N1CCCSc1ccccc1 |  | > 100 µM
72 | CCOC(=O)Nc1nc2ccc(Cn3cccc3)cc2[nH]1 |  | > 100 µM
73 | COc1cc(Nc2nccc(Nc3ccc4c(C)[nH]nc4c3)n2)cc(OC)c1OC | 1.62 µM | 16.9 µM
74 | CCN(CC)CCC(=O)NC1c2ccc(Cl)cc2Oc2c(C)cccc21 (centres undefined) |  | 31 µM
75 | CCOC(=O)c1cc(C#N)c(=O)n(/N=C(\C)c2ccncc2)c1O | > 100 µM | > 100 µM
76 | COc1ccc(/C=N\NC(=O)CN2CCN(c3cc4c(cc3F)c(=O)c(C(=O)N/N=C/c3ccc(OC)c(OC)c3)cn4C3CC3)CC2)cc1OC | 3.21 µM | > 100 µM

System: T-47D breast
Test: NCI anticancer screen, dose series, 48 h

Row | Structure (SMILES) | GI50 | TGI
77 | CC(C)(C#N)c1cc(Cn2cncn2)cc(C(C)(C)C#N)c1 | 6760 µM | > 10000 µM
78 | NOCC(=O)O | > 100 µM | > 100 µM
79 | CC(=O)c1c(C)[nH]c(-c2nc3ccc(N4CCN(C)CC4)cc3[nH]2)c1-c1ccc(OCC2CCOCC2)cc1 | 0.445 µM | 20.6 µM
80 | CC12OC(c3ccccc3)=CC(c3ccc(Cl)cc3)=C1C(c1ccccc1)=CC2=O (centres undefined) | 35.8 µM | > 100 µM
81 | Cc1nc2sc(C(=O)Nc3cccc(Cl)c3C)c(N)c2cc1C(=O)/C=C/c1ccccc1 | 0.767 µM | 2.4 µM
82 | CC(C)c1ccc(C(=O)Nc2nc3ccc(O)cc3s2)cc1 | 0.715 µM | > 100 µM
83 | O=S(=O)(NC1=NCCN1C(=S)SN1CCn2c1nsc2=S)c1ccc(Br)cc1 | 43.5 µM | > 100 µM
84 | CC(=O)N[C@H]1C=C[C@@H]2/C=C(C)/C=C/[C@@H](C)[C@H]([C@H](C)[C@H](O)[C@@H](C)NC(C)=O)OC(=O)/C=C/C=C(C)\C=C\[C@]2(C)C1 | 0.0131 µM and 0.0045 µM | 4.65 µM and 5.18 µM
85 | O=C1c2ccccc2-c2c1c1ccccc1c(=O)n2CCCNCCCn1ccnc1 | 5.78 µM | 21.1 µM
86 | ClCc1cccc(Cn2cnc3c(NC45CC6CC(CC(C6)C4)C5)ncnc32)c1 | 15.1 µM | 36.6 µM
87 | CC(=O)CC(=O)Nc1ccc2ccccc2c1 |  | > 100 µM
88 | O=c1c2cc(Cl)ccc2oc2ccc(OCCCCCN3CCCCC3)cc12 | 7.21 µM | 17 µM
89 | Cc1cc(I)cc(CN(C)CCCN2CCSCC2)c1O | 31.3 µM | > 100 µM
90 | O=C1c2ccccc2C(=O)N1CCCSc1ccccc1 |  | > 100 µM
91 | CCOC(=O)Nc1nc2ccc(Cn3cccc3)cc2[nH]1 |  | > 100 µM
92 | COc1cc(Nc2nccc(Nc3ccc4c(C)[nH]nc4c3)n2)cc(OC)c1OC | 1.44 µM | 7.46 µM
93 | CCN(CC)CCC(=O)NC1c2ccc(Cl)cc2Oc2c(C)cccc21 (centres undefined) |  | 31.5 µM
94 | CCOC(=O)c1cc(C#N)c(=O)n(/N=C(\C)c2ccncc2)c1O | > 100 µM | > 100 µM
95 | COc1ccc(/C=N\NC(=O)CN2CCN(c3cc4c(cc3F)c(=O)c(C(=O)N/N=C/c3ccc(OC)c(OC)c3)cn4C3CC3)CC2)cc1OC | 2.55 µM | 8.78 µM
